In US12162897B2, “1,4-sulfur-bridged polycyclic compounds containing dihydrobenzofuran structure, its preparation method and application thereof” (Chengdu University, priority 2021, dated 2024) one finds IC50 data, which are given here for 21 molecules.

Assay [1] deals with human leukemia cells K562. Nature of the assay: Cell viability assay, human leukemia cells K562. It counts as cell-based. The settings on record: 5000 cells per well, 96-well plate, 48 hours with compound, mean of repeats. How it is done: (§1) Specific experimental operations: 5000 human leukemia cells K562 and human lung cancer cells A549 are seeded into 96-well cell culture plates respectively to grow for 24 hours. Then, a predetermined concentration of the above synthesized compounds are added respectively, wherein the antitumor drug cisplatin is used as a control for 48 hours. The mean 50% inhibitory concentration (IC50) of all compounds is then determined. Each concentration is repeated at least three times, and all experiments are repeated three times, and the average results obtained are shown in Table 1.

For assay [2], the system named is human lung cancer cells A549. Nature of the assay: Cell viability assay, human lung cancer cells A549. It counts as cell-based. To be noted: 5000 cells per well, 96-well plate, 48 hours with compound, mean of repeats. How it is done: as §1

Turning to `N.N.[Cl][Pt][Cl]` [Cisplatin, cisplatin, reference compound], the half-inhibitory concentration (IC50) (usually the concentration at which inhibition is half-maximal) in assay [1] came out at 20.3 µM; in assay [2] it was 24 µM.

Regarding `C[C@@]12S[C@@](c3ccccc3)(NC1=O)[C@]1([N+](=O)[O-])Oc3ccccc3[C@H]21` [I-aa], the IC50 in assay [1] (Homo sapiens, K562, 48 h) amounted to 12.4 µM; in assay [2] (Homo sapiens, A549, 48 h) it was 28.2 µM.

As to `C[C@@]12S[C@@](c3ccccc3F)(NC1=O)[C@]1([N+](=O)[O-])Oc3ccccc3[C@H]21` [I-ab], the IC50 in assay [1] (Homo sapiens, K562, 48 h) was found to be 52.2 µM; in assay [2] (Homo sapiens, A549, 48 h), 57 µM.

Take `C[C@@]12S[C@@](c3ccc(F)cc3)(NC1=O)[C@]1([N+](=O)[O-])Oc3ccccc3[C@H]21` [I-ac]: the IC50 in assay [1] (Homo sapiens, K562, 48 h) came out at 74.6 µM; in assay [2] (Homo sapiens, A549, 48 h), 58.2 µM.

For `C[C@@]12S[C@@](c3ccc(Cl)cc3)(NC1=O)[C@]1([N+](=O)[O-])Oc3ccccc3[C@H]21` [I-ad], the concentration for half-maximal inhibition (IC50) in assay [1] (Homo sapiens, K562, 48 h) is 50.2 µM; in assay [2] (Homo sapiens, A549, 48 h), 40 µM.

As for `C[C@@]12S[C@@](c3ccc(Br)cc3)(NC1=O)[C@]1([N+](=O)[O-])Oc3ccccc3[C@H]21` [I-ae], the IC50 in assay [1] (Homo sapiens, K562, 48 h) is 54.7 µM; in assay [2] (Homo sapiens, A549, 48 h), 45.5 µM.

In the case of `C[C@@]12S[C@@](c3cccc(Br)c3F)(NC1=O)[C@]1([N+](=O)[O-])Oc3ccccc3[C@H]21` [I-af], the IC50 in assay [1] (Homo sapiens, K562, 48 h) came to 46.4 µM; in assay [2] (Homo sapiens, A549, 48 h) it was 39.5 µM.

On to `C[C@@]12S[C@@](c3cccc(Br)c3F)(NC1=O)[C@]1([N+](=O)[O-])Oc3ccccc3[C@H]21` [I-ag], for which the IC50 was 30.2 µM in assay [1] and 44.6 µM in assay [2].

For `C[C@@]12S[C@@](c3ccc4ccccc4n3)(NC1=O)[C@]1([N+](=O)[O-])Oc3ccccc3[C@H]21` [I-ah], the IC50 in assay [1] (Homo sapiens, K562, 48 h) was determined as 59.4 µM; in assay [2] (Homo sapiens, A549, 48 h) it was 20.5 µM.

Turning to `C[C@@]12S[C@@](c3ccccn3)(NC1=O)[C@]1([N+](=O)[O-])Oc3ccccc3[C@H]21` [I-ai], the IC50 in assay [1] (Homo sapiens, K562, 48 h) was found to be 32.3 µM; in assay [2] (Homo sapiens, A549, 48 h), 23.9 µM.

Turning to `C[C@@]12S[C@@](c3ccccc3)(NC1=O)[C@]1([N+](=O)[O-])Oc3ccc(F)cc3[C@H]21` [I-ba], the IC50 in assay [1] (Homo sapiens, K562, 48 h) was 13 µM; in assay [2] (Homo sapiens, A549, 48 h), 32.6 µM.

Turning to `C[C@@]12S[C@@](c3ccccc3)(NC1=O)[C@]1([N+](=O)[O-])Oc3c(F)cccc3[C@H]21` [I-ca], the IC50 in assay [1] (Homo sapiens, K562, 48 h) came to 19 µM; in assay [2] (Homo sapiens, A549, 48 h) it was 57.7 µM.

With `C[C@@]12S[C@@](c3ccccc3)(NC1=O)[C@]1([N+](=O)[O-])Oc3cccc(Cl)c3[C@H]21` [I-da], the IC50 is 10.3 µM in assay [1] (Homo sapiens, K562, 48 h) and 34.3 µM in assay [2] (Homo sapiens, A549, 48 h).

Take `C[C@@]12S[C@@](c3ccccc3)(NC1=O)[C@]1([N+](=O)[O-])Oc3ccc(Cl)cc3[C@H]21` [I-ea]: the IC50 was 21.4 µM in assay [1] (Homo sapiens, K562, 48 h) and 45.3 µM in assay [2] (Homo sapiens, A549, 48 h).

Consider `C[C@@]12S[C@@](c3ccccc3)(NC1=O)[C@]1([N+](=O)[O-])Oc3ccc(Br)cc3[C@H]21` [I-fa], for which the IC50 in assay [1] (Homo sapiens, K562, 48 h) came to 30.9 µM; in assay [2] (Homo sapiens, A549, 48 h), 67.6 µM.

Turning to `C[C@@]12S[C@@](c3ccccc3)(NC1=O)[C@]1([N+](=O)[O-])Oc3cc(Br)ccc3[C@H]21` [I-ga], the IC50 in assay [1] (Homo sapiens, K562, 48 h) worked out at 7.09 µM; in assay [2] (Homo sapiens, A549, 48 h), 30.8 µM.

`C[C@@]12S[C@@](c3ccccc3)(NC1=O)[C@]1([N+](=O)[O-])Oc3ccc([N+](=O)[O-])cc3[C@H]21` [I-ha]: the half-maximal inhibitory concentration (IC50) in assay [1] (Homo sapiens, K562, 48 h) was found to be 22.3 µM; in assay [2] (Homo sapiens, A549, 48 h), 67.3 µM.

Turning to `Cc1ccc2c(c1)O[C@]1([N+](=O)[O-])[C@H]2[C@]2(C)S[C@@]1(c1ccccc1)NC2=O` [I-ia], the IC50 in assay [1] (Homo sapiens, K562, 48 h) amounted to 14.5 µM; in assay [2] (Homo sapiens, A549, 48 h), 33.3 µM.

Take `COc1ccc2c(c1)O[C@]1([N+](=O)[O-])[C@H]2[C@]2(C)S[C@@]1(c1ccccc1)NC2=O` [I-ja]: the IC50 is 2.6 µM in assay [1] (Homo sapiens, K562, 48 h) and 4.83 µM in assay [2] (Homo sapiens, A549, 48 h).

Consider `CC(C)(C)c1ccc2c(c1)[C@@H]1[C@]3(C)S[C@@](c4ccccc4)(NC3=O)[C@]1([N+](=O)[O-])O2` [I-ka], for which the IC50 in assay [1] (Homo sapiens, K562, 48 h) worked out at 29.6 µM; in assay [2] (Homo sapiens, A549, 48 h), 33 µM.

On to `COc1cc(Br)cc2c1O[C@]1([N+](=O)[O-])[C@H]2[C@]2(C)S[C@@]1(c1ccccc1)NC2=O` [I-la], for which the IC50 worked out at 3.1 µM in assay [1] (Homo sapiens, K562, 48 h) and 15.6 µM in assay [2] (Homo sapiens, A549, 48 h).
